From PubChem BioAssay AID1918934 (Molecular Pharmacology Branch, DTP, NCI, 2023)
Where “and” joins values, the source holds several entries; their conditions need not be identical. Identical values can stand only once.

Tested on: 292921-168-R-J2-PDC complex spheroid viability
Assay: Anticancer human tumor 292921-168-R-J2-PDC patient-derived pancreatic carcinoma cell line growth inhibition
Conditions: for IC50: curve of first compound; for viability, T/C: stronger effect = lower value
Method in brief: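 Multicellular complex spheroids of tumor cells with human endothelial cells (HUVEC) and mesenchymal stem cells; the LSD1 inhibitor iadademstat was combined with standard-of-care or investigational agents. Top concentration at or near clinical Cmax, half-log dilutions; final DMSO ≤0.25%.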

[1] = second compound 0.1 µM, first compound 0.000949 µM
[2] = second compound 0.1 µM, first compound 0.003 µM
[3] = second compound 0.1 µM, first compound 0.00949 µM
[4] = second compound 0.1 µM, first compound 0.03 µM
[5] = second compound 0.1 µM, first compound 0.0949 µM
[6] = second compound 0.1 µM, first compound 0.3 µM
[7] = second compound 0.316 µM, first compound 0.000949 µM
[8] = second compound 0.316 µM, first compound 0.003 µM
[9] = second compound 0.316 µM, first compound 0.00949 µM
[10] = second compound 0.316 µM, first compound 0.03 µM
[11] = second compound 0.316 µM, first compound 0.0949 µM
[12] = second compound 0.316 µM, first compound 0.3 µM
[13] = second compound 1 µM, first compound 0.000949 µM
[14] = second compound 1 µM, first compound 0.003 µM
[15] = second compound 1 µM, first compound 0.00949 µM
[16] = second compound 1 µM, first compound 0.03 µM
[17] = second compound 1 µM, first compound 0.0949 µM
[18] = second compound 1 µM, first compound 0.3 µM
[19] = second compound 3.16 µM, first compound 0.000949 µM
[20] = second compound 3.16 µM, first compound 0.003 µM
[21] = second compound 3.16 µM, first compound 0.00949 µM
[22] = second compound 3.16 µM, first compound 0.03 µM
[23] = second compound 3.16 µM, first compound 0.0949 µM
[24] = second compound 3.16 µM, first compound 0.3 µM
[25] = second compound 10 µM, first compound 0.000949 µM
[26] = second compound 10 µM, first compound 0.003 µM
[27] = second compound 10 µM, first compound 0.00949 µM
[28] = second compound 10 µM, first compound 0.03 µM
[29] = second compound 10 µM, first compound 0.0949 µM
[30] = second compound 10 µM, first compound 0.3 µM
[31] = second compound 0.1 µM, first compound 0.0316 µM
[32] = second compound 0.1 µM, first compound 0.1 µM
[33] = second compound 0.1 µM, first compound 0.316 µM
[34] = second compound 0.1 µM, first compound 1 µM
[35] = second compound 0.316 µM, first compound 0.0316 µM
[36] = second compound 0.316 µM, first compound 0.1 µM
[37] = second compound 0.316 µM, first compound 0.316 µM
[38] = second compound 0.316 µM, first compound 1 µM
[39] = second compound 1 µM, first compound 0.0316 µM
[40] = second compound 1 µM, first compound 0.1 µM
[41] = second compound 1 µM, first compound 0.316 µM
[42] = second compound 1 µM, first compound 1 µM
[43] = second compound 3.16 µM, first compound 0.0316 µM
[44] = second compound 3.16 µM, first compound 0.1 µM
[45] = second compound 3.16 µM, first compound 0.316 µM
[46] = second compound 3.16 µM, first compound 1 µM
[47] = second compound 10 µM, first compound 0.0316 µM
[48] = second compound 10 µM, first compound 0.1 µM
[49] = second compound 10 µM, first compound 0.316 µM
[50] = second compound 10 µM, first compound 1 µM
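Also: seven day compound exposure before luminescent viability read.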
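For viability, T/C in this document: 100% = DMSO vehicle control wells.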

SMILES: CCc1c2c(nc3ccc(O)cc13)-c1cc3c(c(=O)n1C2)COC(=O)[C@]3(O)CC + NC1CCC(NC2CC2c2ccccc2)CC1
- IC50 (second compound 0.1 µM): < 0.949 nM
- IC50 (second compound 0.316 µM): < 0.949 nM
- IC50 (second compound 1 µM): < 0.949 nM
- IC50 (second compound 3.16 µM): < 0.949 nM
- IC50 (second compound 10 µM): < 0.949 nM
- viability, T/C [1]: 5.27%
- viability, T/C [2]: 3.61%
- viability, T/C [3]: 1.77%
- viability, T/C [4]: 0.99%
- viability, T/C [5]: 0.98%
- viability, T/C [6]: 1.08%
- viability, T/C [7]: 5.76%
- viability, T/C [8]: 4.37%
- viability, T/C [9]: 1.62%
- viability, T/C [10]: 0.85%
- viability, T/C [11]: 0.86%
- viability, T/C [12]: 1.09%
- viability, T/C [13]: 5.78%
- viability, T/C [14]: 3.94%
- viability, T/C [15]: 1.33%
- viability, T/C [16]: 0.71%
- viability, T/C [17]: 0.85%
- viability, T/C [18]: 0.78%
- viability, T/C [19]: 6.37%
- viability, T/C [20]: 3.93%
- viability, T/C [21]: 1.39%
- viability, T/C [22]: 0.55%
- viability, T/C [23]: 0.97%
- viability, T/C [24]: 0.91%
- viability, T/C [25]: 4.96%
- viability, T/C [26]: 3.66%
- viability, T/C [27]: 0.99%
- viability, T/C [28]: 0.7%
- viability, T/C [29]: 0.8%
- viability, T/C [30]: 0.74%

SMILES: CC(C)c1c(-c2ccccc2)nc2c(C#N)c[nH]n2c1=O + NC1CC1c1ccc(-c2cccc(O)c2)cc1
- IC50 (second compound 0.1 µM): > 10000 nM
- IC50 (second compound 0.316 µM): > 10000 nM
- IC50 (second compound 1 µM): > 10000 nM
- IC50 (second compound 3.16 µM): > 10000 nM
- IC50 (second compound 10 µM): > 10000 nM
- viability, T/C [31]: 79.9%
- viability, T/C [32]: 84%
- viability, T/C [33]: 82%
- viability, T/C [34]: 70.7%
- viability, T/C (second compound 0.1 µM, first compound 3.16 µM): 78.4%
- viability, T/C (second compound 0.1 µM, first compound 10 µM): 66%
- viability, T/C [35]: 81.7%
- viability, T/C [36]: 73%
- viability, T/C [37]: 80.7%
- viability, T/C [38]: 69.5%
- viability, T/C (second compound 0.316 µM, first compound 3.16 µM): 71.4%
- viability, T/C (second compound 0.316 µM, first compound 10 µM): 60.4%
- viability, T/C [39]: 71.8%
- viability, T/C [40]: 68.9%
- viability, T/C [41]: 66.8%
- viability, T/C [42]: 66.2%
- viability, T/C (second compound 1 µM, first compound 3.16 µM): 61.1%
- viability, T/C (second compound 1 µM, first compound 10 µM): 55.7%
- viability, T/C [43]: 58.6%
- viability, T/C [44]: 65.3%
- viability, T/C [45]: 64.4%
- viability, T/C [46]: 57.9%
- viability, T/C (second compound 3.16 µM, first compound 3.16 µM): 52.2%
- viability, T/C (second compound 3.16 µM, first compound 10 µM): 59.6%
- viability, T/C [47]: 58.1%
- viability, T/C [48]: 53.2%
- viability, T/C [49]: 58.4%
- viability, T/C [50]: 53.7%
- viability, T/C (second compound 10 µM, first compound 3.16 µM): 49.8%
- viability, T/C (second compound 10 µM, first compound 10 µM): 52.2%

SMILES: Nc1ncn(C2CC(O)C(CO)S2)c(=O)n1 (stereo not given) + NC1CC1c1ccc(-c2cccc(O)c2)cc1
- IC50 (second compound 0.1 µM): 61.3 nM
- IC50 (second compound 0.316 µM): 53.1 nM
- IC50 (second compound 1 µM): 50.3 nM
- IC50 (second compound 3.16 µM): 40 nM
- IC50 (second compound 10 µM): 36.5 nM
- viability, T/C [1]: 83%
- viability, T/C [2]: 80.8%
- viability, T/C [3]: 73.2%
- viability, T/C [4]: 62.2%
- viability, T/C [5]: 42.7%
- viability, T/C [6]: 11.5%
- viability, T/C [7]: 66.8%
- viability, T/C [8]: 73.2%
- viability, T/C [9]: 63.9%
- viability, T/C [10]: 63.1%
- viability, T/C [11]: 37.3%
- viability, T/C [12]: 13.3%
- viability, T/C [13]: 63.9%
- viability, T/C [14]: 67%
- viability, T/C [15]: 74.4%
- viability, T/C [16]: 56.9%
- viability, T/C [17]: 38.5%
- viability, T/C [18]: 12.8%
- viability, T/C [19]: 67.5%
- viability, T/C [20]: 66.8%
- viability, T/C [21]: 62.6%
- viability, T/C [22]: 55.1%
- viability, T/C [23]: 36%
- viability, T/C [24]: 12.8%
- viability, T/C [25]: 55.2%
- viability, T/C [26]: 62%
- viability, T/C [27]: 59.9%
- viability, T/C [28]: 52.8%
- viability, T/C [29]: 33.6%
- viability, T/C [30]: 15.5%

SMILES: Nc1ncn(C2CC(O)C(CO)O2)c(=O)n1 (stereo not given) + NC1CCC(NC2CC2c2ccccc2)CC1
- IC50 (second compound 0.1 µM): 279 nM
- IC50 (second compound 0.316 µM): 103 nM
- IC50 (second compound 1 µM): 64 nM
- IC50 (second compound 3.16 µM): 105 nM
- IC50 (second compound 10 µM): 40.5 nM
- viability, T/C (second compound 0.1 µM, first compound 0.00316 µM): 63.8%
- viability, T/C (second compound 0.1 µM, first compound 0.01 µM): 70.5%
- viability, T/C [31]: 62.2%
- viability, T/C [32]: 49.6%
- viability, T/C [33]: 50.2%
- viability, T/C [34]: 44.2%
- viability, T/C (second compound 0.316 µM, first compound 0.00316 µM): 67%
- viability, T/C (second compound 0.316 µM, first compound 0.01 µM): 69%
- viability, T/C [35]: 61.5%
- viability, T/C [36]: 49.8%
- viability, T/C [37]: 46.6%
- viability, T/C [38]: 42.6%
- viability, T/C (second compound 1 µM, first compound 0.00316 µM): 59.7%
- viability, T/C (second compound 1 µM, first compound 0.01 µM): 58.6%
- viability, T/C [39]: 52.8%
- viability, T/C [40]: 45.2%
- viability, T/C [41]: 47%
- viability, T/C [42]: 42.7%
- viability, T/C (second compound 3.16 µM, first compound 0.00316 µM): 54.8%
- viability, T/C (second compound 3.16 µM, first compound 0.01 µM): 53.9%
- viability, T/C [43]: 55.1%
- viability, T/C [44]: 52.3%
- viability, T/C [45]: 41.3%
- viability, T/C [46]: 35.6%
- viability, T/C (second compound 10 µM, first compound 0.00316 µM): 53.1%
- viability, T/C (second compound 10 µM, first compound 0.01 µM): 57.4%
- viability, T/C [47]: 49.3%
- viability, T/C [48]: 45.8%
- viability, T/C [49]: 36%
- viability, T/C [50]: 35.4%

SMILES: NC1CCC(NC2CC2c2ccccc2)CC1 (stereo not given)
- viability, T/C (compound 0.1 µM): 65.7% [middle of 25 runs]
- viability, T/C (compound 0.316 µM): 56.6% and 63.5%
- viability, T/C (compound 1 µM): 58% [middle of 25 runs]
- viability, T/C (compound 3.16 µM): 57.4% [middle of 25 runs]
- viability, T/C (compound 10 µM): 54.2% [middle of 23 runs]
